Results: US8802721B2, “Thiophene compounds for inflammation and immune-related uses” (Synta Pharmaceuticals Corp., priority 2005, dated 2014)

Test system: IL-2 production
Experiment: Inhibition of IL-2 production in PHA-activated Jurkat cells (ELISA)
Format: cell-based
Conditions: Homo sapiens, PHA 2.5 μg/mL, 20 hours
Procedure: Jurkat cells were placed in a 96 well plate (0.5 million cells per well in 1% FBS medium) then a test compound of this invention was added at different concentrations. After 10 minutes, the cells were activated with PHA (final concentration 2.5 μg/mL) and incubated for 20 hours at 37° C. under CO2. The final volume was 200 μL. Following incubation, the cells were centrifuged and the supernatants collected and stored at −70° C. prior to assaying for IL-2 production. A commercial ELISA kit (IL-2 Eli-pair, Diaclone Research, Besancon, France) was used to detect production of IL-2, from which dose response curves were obtained.

SMILES | IC50 [nM]
O=C(Nc1c(F)cccc1F)c1ccc(-c2cc(C(F)(F)F)ccc2Cl)s1 [Compound 1, 5-(2-Chloro-5-trifluoromethyl-phenyl)-thiophene-2-carboxylic acid (2,6-difluoro-phenyl)-amide] | 3
Cc1cnccc1NC(=O)c1ccc(-c2cc(C(F)(F)F)ccc2Cl)s1 [Compound 2, 5-(2-Chloro-5-trifluoromethyl-phenyl)-thiophene-2-carboxylic acid (3-methyl-pyridin-4-yl)-amide] | 14
COC(=O)c1ccc(C)c(-c2ccc(C(=O)Nc3c(F)cccc3F)s2)c1 [Compound 3, 3-[5-(2,6-Difluoro-phenylcarbamoyl)-thiophen-2-yl]-4-methyl-benzoic acid methyl ester] | 6.4
COC(=O)c1ccc(C)c(-c2ccc(C(=O)Nc3ccncc3C)s2)c1 [Compound 4, 4-Methyl-3-[5-(3-methyl-pyridin-4-ylcarbamoyl)-thiophen-2-yl]-benzoic acid methyl ester] | 58.5
O=C(Nc1ccc(-c2cccc(C(F)(F)F)c2)s1)c1c(F)cccc1F [Compound 117, 2,6-Difluoro-N-[5-(3-trifluoromethyl-phenyl)-thiophen-2-yl]-benzamide] | 16.5
COC(=O)c1ccc(C)c(-c2ccc(NC(=O)c3c(F)cccc3F)s2)c1 [Compound 118, 3-[5-(2,6-Difluoro-benzoylamino)-thiophen-2-yl]-4-methyl-benzoic acid methyl ester] | 104
Cc1ccc(-c2ncco2)cc1-c1ccc(NC(=O)c2c(F)cccc2F)s1 [Compound 119, 2,6-Difluoro-N-[5-(2-methyl-5-oxazol-2-yl-phenyl)-thiophen-2-yl]-benzamide] | 94.8
COC(=O)c1cccc(-c2sc(NC(=O)c3c(F)cccc3F)cc2C)c1 [Compound 120, 3-[5-(2,6-Difluoro-benzoylamino)-3-methyl-thiophen-2-yl]-benzoic acid methyl ester] | 87
O=C(Nc1ccc(-c2cccc(-c3cnco3)c2)s1)c1c(F)cccc1F [Compound 121, 2,6-Difluoro-N-[5-(3-oxazol-5-yl-phenyl)-thiophen-2-yl]-benzamide] | 164

Molecular target: ICRAC current in RBL cells (CRAC ion channel) (Rattus norvegicus, UniProt Q5M848)
Sequence (Q5M848 whole entry, looked up): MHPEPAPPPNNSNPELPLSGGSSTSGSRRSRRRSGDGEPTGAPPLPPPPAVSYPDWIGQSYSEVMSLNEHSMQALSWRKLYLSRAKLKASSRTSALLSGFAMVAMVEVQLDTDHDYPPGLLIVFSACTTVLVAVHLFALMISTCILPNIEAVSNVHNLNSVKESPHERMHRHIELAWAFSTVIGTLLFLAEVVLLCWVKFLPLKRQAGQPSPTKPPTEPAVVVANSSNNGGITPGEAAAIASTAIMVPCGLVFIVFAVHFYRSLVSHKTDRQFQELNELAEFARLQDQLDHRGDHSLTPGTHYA
Experiment: Patch clamp inhibition of ICRAC current in RBL cells
Format: cell-based
Conditions: whole-cell patch clamp, inward current at −80 mV, read-out: IC50 (concentration which inhibits 50% of the ICRAC current)
Procedure: In general, a whole cell patch clamp method is used to examine the effects of a compound of the invention on a channel that mediates Icrac. In such experiments, a baseline measurement is established for a patched cell. Then a compound to be tested is perfused (or puffed) to cells in the external solution and the effect of the compound on Icrac is measured. A compound that modulates Icrac (e.g., inhibits) is a compound that is useful in the invention for modulating CRAC ion channel activity.
Rat basophilic leukemia cells (RBL-2H3) were grown in DMEM media supplemented with 10% fetal bovine serum in an atmosphere of 95% air/5% CO2. Cells were seeded on glass coverslips 1-3 days before use.
Membrane currents of individual cells were recorded using the whole-cell configuration of the patch clamp technique with an EPC10 (HEKA Electronik, Lambrecht, Germany). Electrodes (2-5 MΩ in resistance) were fashioned from borosilicate glass capillary tubes (Sutter Instruments, Novato, Ca). […]
ICRAC currents were monitored every 2 seconds using a 50 msec protocol, where the voltage was ramped from −100 mV to +100 mV. […]
The ICRAC current level was determined by measuring the inward current amplitude at −80 mV of the voltage ramp in an off-line analysis using MATLAB. The ICRAC current inhibition for each concentration was calculated using peak amplitude in the beginning of the experiment from the same cell. […]

SMILES | IC50 [nM]
COc1ccc(CCCOC(Cn2ccnc2)c2ccc(OC)cc2)cc1 (stereo not shown) [SKF96365] | 4000
